Patent publication US8563603B2, “Polycyclic compounds and methods related thereto” (Cornell University, priority 2008, dated 2013)

How the values were obtained:
breast cancer cell lines = experiment: Alamar Blue cytotoxicity, averaged across cell lines or cell line not stated; assay type: cell-based, human; settings: averaged across cell lines
Method: (§1) Human breast carcinoma cell line lines; SKBR-3, BT20, MB-MDA-468, MB-MDA-453, MB-MDA-231, and MCF-7 and human cancer cell lines Calu-6, Hela, HCT-116, HT-29, and A-431, obtained from ATCC (Manassas, Va.), were cultured in Dulbecco's Modified Eagle's Medium (DMEM-Sigma D-564R) supplemented with 10% Fetal Calf Serum (heat-inactivated) and antibiotics (Antibiotic Antimycotic Solution 100×, Sigma A9909). Breast cancer cell lines were chosen based on their varying amount of Epidermal Growth Factor Receptors (EGFR). Cells were routinely propagated and cultured at 37° C. in a 100% relative humidified atmosphere consisting of 5% C02 and 95% air. Cells were trypsinized with 0.05% Trypsin-0.2% EDTA (w/v) solution. All experiments were repeated at least three times.
Cells were seeded onto a standard 96-well microtiter plate at a density of 2×10^4 cells/well in 100-μl tissue culture medium. […] Each well was evaluated at seven 10-fold dilutions starting from a high of 1000 ppm. […] Following a 48-h incubation period, extracted cells were evaluated using Alamar Blue, a fluorometric/colorimetric assay that measures cell proliferation by relying on the cells metabolic activity. […] Data were analyzed immediately by visualizing color densities and/or with a standard spectrophotometer at 540 nm.

cancer cell lines = experiment: Sulforhodamine B (SRB) assay, cell line not stated / average of all cell lines; assay type: cell-based, human; settings: highest concentration; positive control averaged on all cell lines
Method: as §1
In addition to Alamar blue, Sulforhodamine B Assay (SRB) was used to determine inhibition by bound protein. Individual cell lines were seeded at varying cell densities as determined by growth rate. […] The absorbance of stained protein was read with an automated 96-well microtiter ELISA plate reader (SAFIRE) at 540 nm. Using absorbance measurement [time zero. (Tz)—control growth, and growth at each drug concentration level (Ti)], the percentage growth is calculated at each of the drug concentrations. Percent growth inhibition is calculated as: [(Ti−Tz)/Tz]×100 for concentration for which Ti<Tz.

cell line MD-MBA-231 = experiment: Cell cycle analysis by DNA content (hypotonic PI staining, flow cytometry); assay type: cell-based, human; settings: 1.2, 6.0, 30.0 ppm; 24 h
Method: Twenty-four hours after exposure to compounds, 25×10^4 cells in 1.5 ml cells were simply re-suspended following either the Annexin V/FITC assay or the trypsin procedures. Cells were centrifuged at 1000-x g at room temperature and washed in 0.5 ml of hypotonic staining solution. Cells were kept a minimum of 30 min. at 4° C. in the dark. Samples were usually analyzed by flow cytometry on the same day or at 24 hrs. Resulting DNA distributions were analyzed for the proportion of cells in apoptosis and in G0/G1, S, and G2/M phases of the cell cycle. Singlet events were gated and 10,000-20,000 events were acquired within the gated region. All experiments were repeated at least three times, each in duplicate.
The cell cycle comprises steps that regulate the correct temporal sequence of events that control the growth, reproduction and differentiation of cells. The cell cycle consists of 4 phases: G0/G1, S (DNA synthesis), G2, and M (mitosis). In addition, checkpoints located in the cell cycle transition ensure that cell growth and division occur in response to appropriate signals and environment. When proliferating, if cells are subjected to DNA damage the cell cycle temporarily pauses either at G1, S or G2 phase. Arrest at these checkpoints prevents DNA replication and mitosis in the presence of unrepaired DNA damage and presumably allows time for DNA repair to occur. The proportion of cells that arrest in G1, S or G2 after damage depends on cell type, growth conditions, type of damage and the checkpoints operative in the cells. Shifts in the redistribution of phases of the cell cycle in response to various stimuli can be readily assessed by flow cytometry. DNA content analysis with the use of PI is one of the most common assays. The use of intercalating dyes to measure DNA content are the most common and are usually sufficient to determine relative shifts in the phases of the cell cycle. The hypotonic solution lyses the plasma membrane and prevents many of the aggregate problems associated with fixed cells. Propidium Iodide(PI) passes through permeabilized cell membranes and intercalates with cellular DNA. Therefore, the intensity of the PI signal is directly proportional to DNA content. DNA content experiments determine the percent induction of apoptosis and relative distribution of the cell cycle phases.
The percent of apoptotic cells (cells with fractional DNA content; sub G1 cells) were established by estimating the percentage of events showing up in sub G0. The Sub-G1 method relies on the fact that after DNA fragmentation, there are small fragments of DNA that may be eluted. However in order to be seen in the Sub G1 area, a cell must have lost enough DNA to appear there; so if cells enter apoptosis from the S or G2/M phase of the cell cycle or if there is an aneuploid population undergoing apoptosis, they may not appear in the Sub G1 peak. The number of events in sub G1 (number of nuclear fragments) provides no information on the # of cells undergoing apoptosis.

[1] = tested on: Human breast cancer cell line MB-MDA-231; experiment: Annexin V FITC / PI apoptosis detection by flow cytometry, 24 h; assay type: cell-based
Method: Human breast cancer cell line MB-MDA-231 were cultured in Dulbecco's Modified Eagle's medium (DMEM-Sigma, D-5648), supplemented with 10% (heat-inactivated) Fetal Bovine Serum (Atlanta Biologicals, Inc.) and Antibiotic Solution, 100× (Sigma A-9909). Cells were gown at 37° C., at 5-7% CO2, and 95% humidity and were obtained from the American Type Culture Collection (ATCC). Cells were trypsinized with 0.05% Trypsin-0.2% EDTA (w/v) solution (Invitrogen Corporation, Carlsbad, Calif.).
The induction of apoptosis in MB-MDA-231 was analyzed using a well-validated Annexin V FITC apoptosis detection kit (Calbiochem), Darzynkiewicz, 1998. The phosphatidylserine (PS)-specific dye Annexin-V is used to detect apoptotic-specific changes to the organization of phospholipids leading to exposure of PS on the cell surface that precedes nuclear breakdown, DNA fragmentation, and the appearance of most apoptosis-associated molecules. For these studies cells were seeded at 25×10^4 cells/1.5 ml in a 24 well microtiter plate. Cells were allowed to adhere to plates for 24 h, and then exposed to lignans of the present invention at 5-fold dilutions of 30 μl, 6 μl, and 1.2 μl per well for 24 h. Test compounds were mixed in solution using DMSO as vehicle (10 mg extract/1 ml DMSO). Camptothecin was used as a positive control. Following the incubation period 700 μl of suspended cells were transferred to 15 ml conical tubes. Cells that remained adhered to the 24-well plates were gently washed with PBS (137 mM NaCl, 2.7 mM KCL, 4.3 mM Na2HPO4-7H2O, 1.4 mM KH2PO4, adjusted to pH 7.4), trypsinized with 1 ml of solution (0.05% Trypsin—0.2% EDTA [w/v]), and resuspended with the suspended cells/media collected in the 15 ml conical tubes from the previous step. 10 μl of media-binding reagent and 1.25 μl Annexin V-FITC was added to the 15 ml conical tubes containing both the 700 μl of suspended cells and the resuspended cells and incubated at room temperature for 15 min, at 18-24° C., in the dark. Tubes were centrifuged for 5 minutes at 1000×g at room temperature. Media was removed and cells were gently resuspended in 0.5 ml cold 1×binding buffer (dilution; 5× Binding Buffer concentrate 1:5 with dH2O) and placed on ice. 10 μl of propidium iodide was added to each tube. Cells were placed on ice away from light and analyzed immediately by flow cytometry. The dual fluorescence emissions of the respective dyes were detected in cell preparations on a BD-Biosciences FACS Aria high-speed flow cytometer/cell sorter utilizing a quartz cuvette for interrogation. To quantify the Annexin V (FL1 at 518 nm) and propidium iodide (620 nm) signals, apoptosis-induced cells (CPT) stained with FITC only and apoptosis-induced cells (CPT) labeled with only propidium iodide were utilized. Necessary adjustments were made to minimize overlap between these two measurements. Typically, 10,000-20,000 cells were scored for each sample and classified as either viable, early apoptotic, or late apoptotic or necrotic. All experiments were repeated at least three times, each in duplicate.
The principal of the Annexin V/FITC assay is that, Annexin V, an anticoagulant protein, preferentially binds negatively charged phospholipids. Early in the apoptotic process, phospholipid asymmetry is disrupted leading to the exposure of phosphatidylserine (PS) on the outer leaflet of the cytoplasmic membrane. Annexin V binds to the negatively charged calcium-dependent PS. Conjugating FITC to Annexin V with simultaneous propidium iodide (PI) staining allows bivariate analysis of intact cells. Live, healthy cells are double negative, FITC (−)/PI (−), and are seen in the lower left quadrant [A3] of FACS cytograms. Cells that are FITC (+)/PI (−) [A4] are early apoptotic. Cell populations that are advanced apoptotic or necrotic are FITC (+)/PI (+) are located in quadrant [A2]. […]

Row | SMILES | concentration of cell death / greatest inhibition, positive controls (breast cancer cell lines) | inhibited cell growth (cancer cell lines) | % events in sub G0 (apoptotic events) (cell line MD-MBA-231) | effect on cell population in G2/M (cell line MD-MBA-231) | effect on cell populations in S-phase, significance (cell line MD-MBA-231) | singlet count (cell line MD-MBA-231) | early stage apoptosis, FITC (+)/PI (−) staining, significance ([1]; 1.2, 6.0, 30.0 ppm, 24 h) | early apoptosis activity increased over the spirocyclic lignans ([1]; all doses)
1 | O=c1[nH]cc(F)c(=O)[nH]1 [5-fluorouracil, 5-Fluorouracil] | cell death at the same lower limits as cell lines BT20 and MB-MDA-453 | approximately 60% | – | – | – | – | – | –
2 | CC[C@@]1(O)C(=O)OCc2c1cc1n(c2=O)Cc2cc3ccccc3nc2-1 [Camptothecin, reference compound] | 7.81 ppm | – | increased and significantly induced apoptotic activity at 30.0 ppm | remained at levels with untreated cells at all doses | significant at 6.0 and 30.0 ppm | reached minimal levels at 30 ppm | significantly increased | at least 5%
